Earlier results as cited in patent US7411005B2, “Compositions and methods for increasing milk production in animals” (Van Beek Natural Science, LLC, priority 2002, dated 2008).

Settings: inactive metabolites after degradation by enzymes

Cc1ccc(C(C)C)cc1O [isopropyl-o-cresol, 5-isopropyl-2-methylphenol]
metabolites excreted in the urine: approx. 90% | metabolites expired from the lungs in the form of CO2: 10%

Cc1ccc(C(C)C)c(O)c1 [isopropyl-cresol, 5-methyl-2[1-methylethyl]phenol]
metabolites excreted in the urine: approx. 90% | metabolites expired from the lungs in the form of CO2: 10%
